Results reported in US10744117B2, “PPARG modulators for the treatment of osteoporosis” (The Scripps Research Institute, priority 2014, dated 2020).
Entries after “also recorded” stand apart in the source; their conditions may differ.

What was measured:
DIO C57BL/6 mice = assay: Bone and marrow fat study in diet induced obesity (DIO) C57BL/6 mice on HFD, 4 wks; assay type: in vivo, mouse; settings: 25 mg/kg/d
Procedure: The compound IA-48 (SR10171) acts as an antagonist to PPARy pro-adipocytic activity, and it has been further tested in vivo for its effect on bone. SR10171 was administered to hyperglycemic C57BL/6 mice, 12 wks old males, that were purchased from the Jackson Laboratories (Bar Harbor, Me.). DIO mice: Animals were fed ad libitum for 11 wks high fat diet (HFD) providing 45 kcal % from fat (D12451; Research Diets, New Brunswick, N.J.) to develop diet induced obesity (DIO).
In parallel, a group of sex- and age-matched control (n=5) was fed regular diet (RD) providing 12 kcal % from fat (2016 Teklad Global, Harlan Laboratories, Indianapolis, Ind.). […]
Fat and lean mass were evaluated at the beginning and at the end of experiment using a Minispec mq10 NMR analyzer (Bruker, Billerica, Mass.). Glucose disposal (glucose tolerance test, GTT) was measured after ip injection of 2 g/kg glucose to animals fasted for 4 hrs. Blood glucose was measured using the AlphaTRAK system appropriate for mice (Abbott Laboratories, North Chicago, Ill.). For indirect calorimetry, mice were evaluated in metabolic cages (CLAMS; Columbus Instruments, Columbus, Ohio) for 4 days with a free access to food and water. […] After one day adaptation, oxygen (VO2) consumption, carbon dioxide (VCO2) production, physical activity, and heat production were measured to determine energy expenditure. […]

lean C57BL/6 mice = assay: Bone study in lean C57BL/6 mice on regular diet, 8 weeks; assay type: in vivo, mouse; settings: supplemented RD
Procedure: In parallel, a group of sex- and age-matched control (n=5) was fed regular diet (RD) providing 12 kcal % from fat (2016 Teklad Global, Harlan Laboratories, Indianapolis, Ind.). […] The animal treatment and care protocols conformed to the NIH Guidelines and were performed under the University of Toledo Health Science Campus Institutional Animal Care and Utilization Committee protocol.
Fat and lean mass were evaluated at the beginning and at the end of experiment using a Minispec mq10 NMR analyzer (Bruker, Billerica, Mass.). Glucose disposal (glucose tolerance test, GTT) was measured after ip injection of 2 g/kg glucose to animals fasted for 4 hrs. Blood glucose was measured using the AlphaTRAK system appropriate for mice (Abbott Laboratories, North Chicago, Ill.). For indirect calorimetry, mice were evaluated in metabolic cages (CLAMS; Columbus Instruments, Columbus, Ohio) for 4 days with a free access to food and water. Mice were housed individually at room temperature (22C) under an alternating 12-h light/dark cycle. After one day adaptation, oxygen (VO2) consumption, carbon dioxide (VCO2) production, physical activity, and heat production were measured to determine energy expenditure. Respiratory exchange ratio was calculated as a ratio of […]. […]

PPARG = assay: Cell-based transactivation assay, 3xPPRE-luciferase reporter co-transfected with PPARG in COS-1 cells; settings: PPRE-luciferase
[1] = system: obese mice fed a high fat diet; assay: Glucose tolerance test in mice on RD or HFD (FIG. 7); assay type: in vivo, mouse; settings: mice fasted, bolus of glucose, plasma glucose over time

CN(CCOc1ccc(CC2SC(=O)NC2=O)cc1)c1ccccn1 (centres unmarked) [Rosiglitazone, rosiglitazone]
decrease of trabecular bone mass (DIO C57BL/6 mice): 70% | bone marrow fat content (osmium staining) (DIO C57BL/6 mice; trabecular region of tibia): significant fat accumulation in the bone marrow; also recorded: significantly increased fat content in the bone marrow | loss of trabecular bone mass (lean C57BL/6 mice): 30% | activation of the reporter (PPARG): about 5 fold | glucose tolerance / glucose disposal [1]: insulin sensitization effects and improved glucose disposal
